Tests used:
[1] = target: T1, CRF receptor (Rattus norvegicus, UniProt P35353); assay: In vitro CRF receptor binding assay (competition with [125I] ovine CRF, rat cortex membranes); conditions: read-out: Inhibition Ki
T1 construct: 100 μl of membrane suspension as prepared above to give a total reaction volume of 300 μl; from tissue; host or cells: rat cerebral cortex membrane homogenate
T1 sequence (P35353 24-415): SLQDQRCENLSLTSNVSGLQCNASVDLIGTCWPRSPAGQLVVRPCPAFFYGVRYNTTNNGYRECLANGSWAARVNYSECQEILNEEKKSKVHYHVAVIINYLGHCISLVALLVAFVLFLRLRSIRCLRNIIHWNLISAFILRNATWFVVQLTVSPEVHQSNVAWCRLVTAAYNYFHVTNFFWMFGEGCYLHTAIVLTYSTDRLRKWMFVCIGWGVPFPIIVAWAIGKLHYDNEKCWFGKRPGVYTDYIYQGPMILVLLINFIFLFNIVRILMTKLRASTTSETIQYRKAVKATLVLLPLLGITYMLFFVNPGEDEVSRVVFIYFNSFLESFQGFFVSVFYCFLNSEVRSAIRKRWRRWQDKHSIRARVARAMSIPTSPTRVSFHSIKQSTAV

Row | SMILES | Ki [1] [nM] | melting point [°C]
1 | CCN(c1nc(C)cc(N2CCOCC2)n1)c1ccc(C(C)C)cc1I [compound 30, N-Ethyl-N-(2-iodo4-(1-methylethyl)phenyl)4-morpholinyl-6-methyl-2-pyrimidinamine] | < 500 | 96 to 98
2 | CCN(c1nc(C)cc(N2CC[S+]([O-])CC2)n1)c1ccc(C(C)C)cc1I [compound 56, N-ethyl-N-(2-iodo4-(1-methylethyl)phenyl)4-thiomorpholino-6-methyl-2-pyrimidinamine, S-oxide] | < 500 | 52 to 55
3 | CCN(c1nc(C)cc(C(=O)N2CCCCC2)n1)c1ccc(C(C)C)cc1Br [compound 60] | 501 to 2000 | 107 to 108
4 | CCN(c1nc(C)cc(C(=O)NC2CCCCC2)n1)c1ccc(C(C)C)cc1Br [compound 62] | 501 to 2000 | 115
5 | CCN(c1nc(C)cc(C)n1)c1ccc(CCO)cc1Br [compound 64, N-(2-Bromo-4-(2-hydroxyethyl)phenyl)-N-ethyl-4,6-dimethyl-2-pyrimidinamine] | 2000 to 10000 | 58 to 60
6 | CCN(c1nc(C)cc(C)n1)c1c(Cl)cc(OC)cc1OC [compound 141] | < 500 | 99 to 102
7 | COc1cc(Cl)c(Nc2nc(C)cc(C)n2)c(OC)c1 [compound 145] | 2000 to 10000 | 170 to 173
8 | C=CCN(c1nc(C)cc(N2CCOCC2)n1)c1ccc(C(C)C)cc1I [compound 165, N-(2-iodo4-(1-methylethyl)phenyl)-N-allyl4-morpholino-6-methyl-2-pyrimidinamine] | < 500 | 109 to 112
9 | Cc1cc(N2CCSCC2)nc(Nc2c(Br)cc(C(C)C)cc2Br)n1 [compound 166, N-(2,6-dibromo-4-(1-methylethyl)phenyl)4-thiomorpholino-6-methyl-2-pyrimidinamine] | < 500 | 194 to 195
10 | CCN(c1nc(C)cc(C)n1)c1ccc(C(C)C)cc1SC [compound 168, N-(2-methylthio-4-(1-methylethyl)phenyl)-N-ethyl-4,6-dimethyl-2-pyrimidinamine] | < 500 | 64 to 66
11 | CCN(c1nc(C)cc(C)n1)c1ccc(C(C)C)cc1S(C)(=O)=O [compound 174, N-(2-methylsulfonyl-4-(1-methylethyl)phenyl)-N-ethyl-4,6-dimethyl-2-pyrimidinamine] | < 500 | 174 to 176
12 | CCN(c1nc(C)cc(C)n1)c1ccc(Br)cc1SC [compound 180, N-(4-bromo-2-methylthiophenyl)-N-ethyl-4,6-dimethyl-2-pyrimidinamine] | < 500 | 91 to 93
13 | CCc1ccc(N(c2nc(C)cc(C)n2)C(C)C)c(SC)c1 [compound 181, N-(4-ethyl-2-methylthiophenyl)-N-(1-methylethyl)4,6-dimethyl-2-pyrimidinamine] | < 500 | 85 to 87
14 | CCN(c1nc(C)cc(C)n1)c1ccc(N(C)C(C)=O)cc1SC [compound 183, N-(2-methylthio-4-(N-acetyl-N-methylamino)phenyl)-N-ethyl-4,6-dimethyl-2-pyrimidinamine] | 2000 to 10000 | 158 to 160
15 | CCOC(=O)c1ccc(N(CC)c2nc(C)cc(C)n2)c(SC)c1 [compound 184, N-(4-carboethoxy-2-methylthiophenyl)-N-ethyl-4,6-dimethyl-2-pyrimidinamine] | 501 to 2000 | 99 to 100
16 | CCN(c1nc(C)cc(C)n1)c1ccc(OC)cc1SC [compound 185, N-(4-methoxy-2-methylthiophenyl)-N-ethyl-4,6-dimethyl-2-pyrimidinamine] | < 500 | 128 to 130
17 | CCN(c1nc(C)cc(C)n1)c1ccc(C#N)cc1SC [compound 186, N-(4-cyano-2-methylthiophenyl)-N-ethyl-4,6-dimethyl-2-pyrimidinamine] | < 500 | 99 to 100
18 | CCN(c1nc(C)cc(C)n1)c1ccc(C(C)=O)cc1SC [compound 187, N-(4-acetyl-2-methylthiophenyl)-N-ethyl-4,6-dimethyl-2-pyrimidinamine] | < 500 | 125 to 126
19 | CCC(=O)c1ccc(N(CC)c2nc(C)cc(C)n2)c(SC)c1 [compound 188, N-(4-propionyl-2-methylthiophenyl)-N-ethyl-4,6-dimethyl-2-pyrimidinamine] | < 500 | 139 to 141
20 | CCN(c1nc(C)cc(C)n1)c1ccc(NC)cc1SC [compound 190, N-(4-(N-methylamino)-2-methylthiophenyl)-N-ethyl-4,6-dimethyl-2-pyrimidinamine] | < 500 | 141 to 142
21 | CCN(c1nc(C)cc(C)n1)c1ccc(N(C)C)cc1SC [compound 191, N-(4-(N,N-dimethylamino)-2-methylthiophenyl)-N-ethyl-4,6-dimethyl-2-pyrimidinamine] | < 500 | 119 to 120
22 | CCN(c1nc(C)cc(N2CCCC2)n1)c1ccc(C(C)C)cc1Br [compound 192] | < 500 | 106 to 107
23 | Cc1cc(N2CCCC2)nc(N(C)c2ccc(C(C)C)cc2Br)n1 [compound 193] | < 500 | 119 to 120
24 | CCc1cc(N2CCCCC2)nc(N(C)c2ccc(C(C)C)cc2Br)n1 [compound 194] | < 500 | 211 to 212

Row | SMILES | Ki [1] [nM] | melting point [°C]
25 | Cc1cc(N2CCCCC2)nc(N(C)c2ccc(C(C)C)cc2Br)n1 [compound 195] | < 500 | 186 to 187
26 | CCCN(c1nc(C)cc(C)n1)c1ccc(C(C)C)cc1Br [compound 196] | < 500 | 150 to 151
27 | CCCCN(c1nc(C)cc(C)n1)c1ccc(C(C)C)cc1Br [compound 197] | 501 to 2000 | 159 to 160
28 | COc1cc(Br)c(Nc2nc(C)cc(C)n2)c(OC)c1 [compound 203] | 501 to 2000 | 177 to 179
29 | COc1ccc(Nc2nc(C)cc(C)n2)c(Br)c1 [compound 204] | 2000 to 10000 | 118 to 119
30 | C=CCN(c1nc(C)cc(C)n1)c1c(Br)cc(OC)cc1OC [compound 205] | < 500 | 88 to 90
31 | COc1cc(Br)c(Nc2nc(C)cc(C)n2)c(Br)c1 [compound 223] | 501 to 2000 | 175 to 177
32 | CCOc1cc(Br)c(N(CC)c2nc(C)cc(C)n2)c(Br)c1 [compound 224, N-(2,6-Dibromo-4-(ethoxy)phenyl)-N-ethyl-4,6-dimethyl-2-pyrimidinamine] | < 500 | 107 to 108
33 | CCN(c1nc(C)cc(C)n1)c1c(Br)cc(OC)cc1Br [compound 226] | < 500 | 101 to 103
34 | CCOc1cc(Br)c(Nc2nc(C)cc(C)n2)c(Br)c1 [compound 228] | 501 to 2000 | 165 to 167
35 | CCN(c1nc(C)cc(C)n1)c1c(O)cc(OC)cc1Br [compound 230, N-(2-Bromo-6-hydroxy-4-methoxyphenyl)-N-ethyl-4,6-dimethyl-2-pyrimidinamine] | < 500 | 157 to 160
36 | CCN(c1nc(C)nc(N2CCOCC2)n1)c1c(Br)cc(OC)cc1OC [compound 237] | < 500 | 90 to 95
37 | CCN(c1nc(C)nc(N(C)C)n1)c1ccc(C(C)C)cc1Br [compound 240] | < 500 | 72 to 75
38 | CCN(c1nc(C)nc(N2CCSC2)n1)c1ccc(C(C)C)cc1Br [compound 241] | < 500 | 70 to 72
39 | CCN(c1nc(C)nc(Oc2ccccc2)n1)c1ccc(C(C)C)cc1Br [compound 243] | 2000 to 10000 | 140 to 142
40 | CCOC(=O)N1CCN(c2nc(C)nc(N(CC)c3c(Br)cc(OC)cc3OC)n2)CC1 [compound 244] | 2000 to 10000 | 65 to 70
41 | CCN(c1nc(C)nc(C(C#N)c2ccccc2)n1)c1c(Br)cc(OC)cc1OC (stereo not drawn) [compound 247] | < 500 | 50 to 52
42 | CCN(c1nc(C)cc(C)n1)c1c(OC)cc(OC)c(Br)c1Br [compound 251, N-(2,3-Dibromo-4,6-dimethoxyphenyl)-N-ethyl-4,6-dimethyl-2-pyrimidinamine] | 501 to 2000 | 133 to 138
43 | CCN(c1nc(C)cc(C)n1)c1cc(Br)c(OC)cc1OC [compound 253, N-(3-Bromo-4,6-dimethoxyphenyl)-N-ethyl-4,6-dimethyl-2-pyrimidinamine] | 501 to 2000 | 143 to 145
44 | CCN(c1nc(C)cc(C(=O)N2CCN(c3ccccc3OC)CC2)n1)c1ccc(C(C)C)cc1Br [compound 268] | < 500 | 57 to 60
45 | CCN(c1nc(C)cc(C(=O)NCc2ccco2)n1)c1ccc(C(C)C)cc1Br [compound 270] | 2000 to 10000 | 87 to 88
46 | CCN(c1nc(C)cc(C(=O)N2CCN(c3ncccn3)CC2)n1)c1ccc(C(C)C)cc1Br [compound 273] | 501 to 2000 | 114 to 116
47 | CCN(c1nc(C)cc(C(=O)N(C)C)n1)c1ccc(C(C)C)cc1Br [compound 282] | < 500 | 80 to 82
48 | CCN(c1nc(C)cc(C(=O)c2cccnc2)n1)c1ccc(C(C)C)cc1Br [compound 284] | < 500 | 165 to 167

From patent US6342503B1, “1N-alkyl-n-arylpyrimidinamines and derivatives thereof” (DuPont Pharmaceuticals Company, priority 1993, dated 2002)
